Source: the supplement of paper PMC10307832

Tests used:
Test in all cases: relative viability (nuclei count vs DMSO), 5 days (fraction); higher = more cells survive
[1] = compound: NS(=O)(=O)OC[C@@H]1C[C@@H](n2ccc3c(N[C@H]4CCc5ccccc54)ncnc32)C[C@@H]1O [MLN4924] + NC(=O)Nc1cc(-c2cccc(F)c2)sc1C(=O)N[C@H]1CCCNC1 [AZD7762] (partner 0.2 µM)
In short: (§1)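 Medians of duplicate plates are given as relative viability. That measure is the nuclei count in treated wells divided by the count in vehicle wells. Counts were taken on 4× images of lung cancer cell lines in 1536-well plates, 5 days after pin-tool dosing the day after seeding with one drug alone or a fixed anchor-drug dose plus five library-drug doses (not always all listed) in √10 steps.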

[2] = compound: NS(=O)(=O)OC[C@@H]1C[C@@H](n2ccc3c(N[C@H]4CCc5ccccc54)ncnc32)C[C@@H]1O [MLN4924] + Nc1nc2[nH]cc(CCc3ccc(C(=O)N[C@@H](CCC(=O)O)C(=O)O)cc3)c2c(=O)[nH]1 [Pemetrexed] (partner 0.2 µM)
In short: as §1

[3] = compound: NS(=O)(=O)OC[C@@H]1C[C@@H](n2ccc3c(N[C@H]4CCc5ccccc54)ncnc32)C[C@@H]1O [MLN4924] + COc1cccc2cc(-c3nc([C@H]4CC[C@H](C(=O)O)CC4)n4ncnc(N)c34)[nH]c12 [OSI-027] (partner 0.5 µM)
In short: as §1

[4] = compound: CC[C@H](C)N1C=C(C2=C(C=C(C=C21)C3=CN=C(C=C3)N4CCNCC4)C(=O)NCC5=C(C=C(NC5=O)C)C)C [GSK126] + C[C@]1(O)C[C@@H](c2nc(-c3ccc4ccc(-c5ccccc5)nc4c3)c3c(N)nccn32)C1 [Linsitinib] (partner 1 µM)
In short: as §1

Cell Line | relative viability ([1]; first compound 0.04 µM) | relative viability ([1]; first compound 0.1265 µM) | relative viability ([1]; first compound 0.4 µM) | relative viability ([1]; first compound 1.265 µM) | relative viability ([1]; first compound 4 µM) | relative viability ([2]; first compound 0.04 µM) | relative viability ([2]; first compound 0.1265 µM) | relative viability ([2]; first compound 0.4 µM) | relative viability ([2]; first compound 1.265 µM) | relative viability ([2]; first compound 4 µM) | relative viability ([3]; first compound 0.04 µM) | relative viability ([3]; first compound 0.1265 µM) | relative viability ([3]; first compound 0.4 µM) | relative viability ([3]; first compound 1.265 µM) | relative viability ([3]; first compound 4 µM) | relative viability ([4]; first compound 0.08 µM) | relative viability ([4]; first compound 0.253 µM) | relative viability ([4]; first compound 0.8 µM) | relative viability ([4]; first compound 2.53 µM) | relative viability ([4]; first compound 8 µM)
NCI-H2342 | 0.412 | 0.568 | 0.551 | 0.523 | 0.452 | 0.796 | 0.787 | 0.815 | 0.714 | 0.559 | 0.586 | 0.779 | 0.532 | 0.594 | 0.547 |  |  |  |  | 
NCI-H2087 | 1.3 | 1.17 | 0.604 | 0.165 | 0.128 | 0.639 | 0.71 | 0.562 | 0.118 | 0.0987 | 0.41 | 0.498 | 0.516 | 0.14 | 0.104 | 0.979 | 0.942 | 0.931 | 0.885 | 0.967
NCI-H596 | 1.04 | 1.22 | 1.06 | 1.15 | 1.19 | 0.49 | 0.511 | 0.405 | 0.496 | 0.437 | 0.669 | 0.87 |  | 0.765 | 0.596 | 1.02 | 0.99 | 1.03 | 1.16 | 1.15
ChaGo-K-1 | 0.861 | 0.701 | 0.508 | 0.193 | 0.159 | 0.272 | 0.258 | 0.251 | 0.179 | 0.181 | 0.461 | 0.35 | 0.272 | 0.181 | 0.176 |  |  |  |  | 
SW 1573 |  |  |  |  |  | 0.899 | 0.901 | 0.249 | 0.0884 | 0.0765 | 0.684 | 0.666 | 0.191 | 0.0527 | 0.0802 | 0.813 | 0.761 | 0.743 | 0.816 | 0.746
LCLC-97TM1 | 0.338 | 0.22 | 0.0891 | 0.0605 | 0.0696 | 0.147 | 0.18 | 0.0833 | 0.0476 | 0.0536 | 0.601 | 0.247 | 0.239 | 0.131 | 0.116 | 0.164 |  | 0.179 | 0.225 | 0.204
HCC-366 | 0.312 | 0.56 | 0.526 | 0.297 | 0.0472 | 0.161 | 0.153 | 0.129 | 0.107 | 0.0292 | 1.02 | 0.895 | 1.08 | 0.396 | 0.0921 | 0.684 | 0.634 | 0.602 | 0.678 | 0.846
NCI-H1650 |  |  |  |  |  | 0.377 | 0.471 | 0.248 | 0.168 | 0.185 | 0.564 | 0.379 | 0.184 | 0.102 | 0.17 |  |  |  |  | 
NCI-H522 | 0.919 | 0.69 | 0.588 | 0.353 | 0.383 | 0.876 | 0.859 | 0.612 | 0.323 | 0.383 | 0.666 | 0.64 | 0.398 | 0.317 | 0.465 |  |  |  |  | 
Calu-6 |  |  |  |  |  |  |  |  |  |  |  |  |  |  |  | 1.14 | 0.97 |  | 0.989 | 1.07
NCI-H520 |  |  |  |  |  | 0.489 | 0.368 | 0.271 | 0.193 | 0.172 | 0.294 | 0.295 | 0.363 | 0.202 | 0.191 | 1.12 | 1.03 | 0.915 | 1.07 | 1.11
NCI-H661 |  |  |  |  |  | 0.773 | 0.77 | 0.494 | 0.426 | 0.44 | 0.751 | 0.876 | 0.689 | 0.319 | 0.349 | 0.531 | 0.561 | 0.519 | 0.719 | 0.497
NCI-H2009 |  |  |  |  |  | 0.941 | 0.884 | 0.218 | 0.133 | 0.0755 | 0.249 | 0.149 | 0.187 | 0.0664 | 0.0797 | 1.3 | 1.18 | 1.27 | 1.18 | 1.2
IA-LM |  |  |  |  |  |  |  |  |  |  |  |  |  |  |  | 0.685 | 0.729 | 0.737 | 0.365 | 0.614
NCI-H727 | 0.574 | 0.432 | 0.402 | 0.372 | 0.242 |  |  |  |  |  | 0.521 | 0.47 | 0.559 | 0.389 | 0.441 | 0.218 | 0.388 | 0.26 | 0.319 | 0.364
EBC-1 |  |  |  |  |  |  |  |  |  |  |  |  |  |  |  | 1.07 | 1.02 | 1 | 0.74 | 0.909
NCI-H2170 | 0.9 | 0.536 | 0.544 | 0.147 | 0.112 | 0.275 | 0.311 | 0.271 | 0.129 | 0.135 | 0.694 | 0.601 | 0.27 | 0.178 | 0.255 |  |  |  |  | 
SW 900 |  | 0.806 | 0.467 | 0.331 | 0.259 |  | 0.397 | 0.261 | 0.194 | 0.168 | 0.266 | 0.412 | 0.217 | 0.0913 | 0.152 |  |  |  |  | 
NCI-H1703 | 0.135 | 0.126 | 0.111 | 0.11 | 0.123 |  |  |  |  |  |  |  |  |  |  | 1.25 | 0.708 | 0.852 | 0.82 | 1.5
NCI-H2023 |  |  |  |  |  | 0.219 | 0.234 | 0.123 | 0.0635 | 0.09 | 0.383 | 0.361 | 0.163 | 0.0645 | 0.0536 | 0.778 | 0.679 | 0.644 | 0.757 | 0.755
NCI-H1563 |  |  |  |  |  | 1.08 | 1.48 | 0.649 | 0.495 | 0.405 | 0.981 | 1.04 | 0.74 | 0.526 | 0.524 | 1.2 | 1.11 | 1.16 | 1.12 | 1.26
ABC-1 | 0.985 | 1.17 | 0.52 | 0.23 | 0.258 |  |  |  |  |  | 0.7 | 0.511 | 0.323 | 0.196 | 0.248 | 0.83 | 1.03 | 0.67 | 0.703 | 0.755
NCI-H1623 |  |  |  |  |  |  |  |  |  |  | 0.404 | 0.421 | 0.404 | 0.333 | 0.314 |  |  |  |  | 
